The source of these data is PMC6222759, “Chemical Constituents from Scindapsus officinalis (Roxb.) Schott. and Their Anti–Inflammatory Activities” (Molecules : A Journal of Synthetic Chemistry and Natural …, 2018).

Bounds are passed on as bounds.

In general, IC50 refers to the midpoint of a concentration-inhibition curve. One may read the inhibition as the change of the read-out against control, counted positive when it falls.

For data set [1], the system named is NO production in LPS-induced Raw 264.7 cells. The experiment in a line: Anti-inflammatory activity assay against NO production (Griess) in LPS-stimulated RAW 264.7 macrophages. It is filed as cell-based, mouse. Conditions: for IC50: Mus musculus, RAW264.7, LPS (1.0 μg/mL)-induced Raw 264.7 cells, 2 h pre-incubation, 24 h stimulation, mean ± SD, n = 3, read-out: IC50 NO (inhibitory effect on NO production); for Anti-inflammatory activity against nitric oxide production (in words): LPS-induced Raw 264.7 cells, compared with positive control dexamethasone. As to the method:
(Raw 264.7 cells were subjected to compounds 3 and 7 with six different concentrations and incubated for 2 h firstly, and then stimulated by adding LPS for 24 h. Then, Griess reagents I and II were added to cell supernatants to detect the NO production levels. The cytotoxicity against macrophage Raw 264.7 cells of compounds 3 and 7 were investigated using the MTT method; NO: Inhibition rates of NO release (%); MTT: Inhibition rates of cell viability (%)).
The anti-inflammatory activity assay against NO production in RAW 264.7 mouse peritoneal macrophages was conducted mainly using the procedures described previously. […] After being stimulated for 24 h, 50 μL of cell supernatants were taken out from each well and mixed with an equal volume of Griess reagents I and II to detect the NO production levels by measuring absorbance at 570 nm. All experiments were performed in triplicate. The NO inhibition is calculated as the percentage reduction of LPS stimulation.
Background: The Griess reaction detects nitrite, a stable product of nitric oxide.

Data set [2] can be described thus: Cytotoxicity against macrophage Raw 264.7 cells (MTT assay). Conditions: mouse. As to the method: (§1) The cytotoxicity against macrophage Raw 264.7 cells was investigated using the MTT assay. Briefly, after the Raw 264.7 cells were treated with the test compounds for 24 h, 50 μL of MTT (5 mg/mL) was added to each well, and the cells were incubated for an additional 4 h. After the formazan crystals formed, cell supernatants were removed and 100 μL of DMSO was added to dissolve the crystals. Absorbance for each well was analyzed in the same way as that for NO inhibition assay.
(Tetrazolium dyes change colour on reduction, which living cells bring about.)

Data set [3] concerns macrophage Raw 264.7 cells. The description is as above. Conditions: MTT method; concentration of 20 μM. As to the method: as §1

With `CC(C)=C[C@@H]1CC=C[C@]1(C)OC1O[C@H](CO)[C@@H](O)[C@H](O)[C@H]1O` (relative stereo) [Compound 1, (rel)-(1R, 5R)-1-Methyl-5-(2-methylprop-1-en-1-yl)cyclopent-2-en-1-O-β-D-glucopyranoside], in data set [1], the IC50 was above 100 µM. In data set [2] (Raw 264.7 macrophage cells), the inhibition at 24 h, 20 µM came out at 1.8%.

Consider `C=CCc1ccc(OC2O[C@H](CO)[C@@H](O[C@H]3[C@H](O)[C@@H](O)[C@H](OCC4(CC)CC4)O[C@@H]3CO)[C@H](O)[C@H]2O)c(OC)c1` (stereo partly drawn) [Compound 2, 2-Methoxy-4-(prop-2-enyl)-1″-(1-ethylcyclopropyl) methanol phenyl O-β-D-glucopyranosyl-(4→4)-β-D-glucopyranoside], for which the IC50 in data set [1] was above 100 µM. Moreover, the inhibition at 24 h, 20 µM in data set [2] (Raw 264.7 macrophage cells) is -0.5%.

Take `COC(=O)/C=C1/C[C@H](O)[C@H](OC(=O)C=Cc2ccc(O)c(O)c2)[C@H]1O` [Compound 3, (Z)-(1S,2S,5S)-2,5-Dihydroxy-3-(2-methoxy-2-oxoethylidene)cyclopentyl 3-(3,4-dihydroxyphenyl) acrylate]: in data set [1], the “Anti-inflammatory activity against nitric oxide production (in words)” value was “moderate inhibitory effects” and the IC50 was 12.2 ± 0.8 µM. The inhibition at 24 h, 20 µM in data set [2] (Raw 264.7 macrophage cells) turned out to be 4.7%. The “Cell toxicity against macrophage Raw 264.7 cells (in words)” value in data set [3] is “neither showed any cell toxicity”.

For `O=C(O)/C=C/c1ccc(O)c(O)c1` [Compound 4, caffeic acid], the IC50 in data set [1] is above 100 µM. For the same molecule, the inhibition at 24 h, 20 µM in data set [2] was 1.1%.

As to `OC[C@H]1O[C@@H](OCCc2ccccc2)[C@H](O)[C@@H](O)[C@@H]1O` [Compound 5, 2-phenylethyl β-D-Glucopyranoside], in data set [1], the IC50 is above 100 µM. The inhibition at 24 h, 20 µM in data set [2] (Raw 264.7 macrophage cells) was 4.5%.

Take `CCCCCCOC1O[C@H](CO)[C@@H](O)[C@H](O)[C@H]1O` (stereo partly drawn) [Compound 6, hexyl-O-β-D-Glucopyranoside]: the IC50 in data set [1] is above 100 µM. In data set [2] (Raw 264.7 macrophage cells), the inhibition at 24 h, 20 µM turned out to be 1.2%.

Regarding `COC(=O)c1cc(O)c(O)c(O)c1` [Compound 7, methyl gallate], in data set [1], the “Anti-inflammatory activity against nitric oxide production (in words)” value is given as “moderate inhibitory effects” and the IC50 is 18.9 ± 0.3 µM. Further, the inhibition at 24 h, 20 µM in data set [2] turned out to be 2.4%. For the same molecule, the “Cell toxicity against macrophage Raw 264.7 cells (in words)” value in data set [3] is “neither showed any cell toxicity”.

As for `C[C@@H]1C[C@H]2[C@@H]3CCC4=CC(=O)C=C[C@]4(C)[C@@]3(F)[C@@H](O)C[C@]2(C)[C@@]1(O)C(=O)CO` [Dexamethasone, dexamethasone, reference compound], the half-maximal inhibitory concentration (IC50) in data set [1] was 2.2 ± 0.02 µM.
